For the assay, the system named is Euschistus heros (Neotropical Brown Stink Bug). As to the kind of experiment: Euschistus heros (Neotropical Brown Stink Bug) contact/feeding activity on sprayed soybean plants. Type of assay: in vivo. Conditions: comparative example, mortality 5 days after infestation. The method, then: Euschistus heros (Neotropical Brown Stink Bug) (Contact/Feeding Activity)
2 week old soybean plants are sprayed in a turn table spray chamber with the diluted spray solutions. After drying, 2 soybean seeds are added and plants are infested with 10 N-2 nymphs of the neotropical brown stink bug Euschistus heros in plastic test boxes. Boxes are incubated in a climate chamber at 25° C. and 60% RH. Evaluation is done 5 days after infestation on mortality.

From US20150152070A1, “METHODS OF PEST CONTROL IN SOYBEAN” (Syngenta Participations AG, priority 2012, published 2015) come the findings set out here.

Each structure is given as a SMILES string.

Consider `O=C(NCC(F)(F)F)N1CCc2cc(C3=NOC(c4cc(Cl)cc(Cl)c4)(C(F)(F)F)C3)ccc21` (stereo not drawn) [Reference compound], for which the Control/% is, setting by setting: (application rate 3.0 ppm) 0%; (application rate 12.5 ppm) 0%; (application rate 50 ppm) 5%.
On to `O=C(CC(F)(F)F)NC1CCc2cc(C3=NOC(c4cc(Cl)cc(Cl)c4)(C(F)(F)F)C3)ccc21` (stereo not drawn) [Compound of the invention], for which the Control/% is, setting by setting: (application rate 3.0 ppm) 75%; (application rate 12.5 ppm) 100%; (application rate 50 ppm) 100%.
